Data published in the NIST ThermoML archive (doi:10.1016/j.fluid.2016.02.037).
Where “and” joins values, the source holds several entries; their conditions need not be identical. Equal values may be shown once.

Assay: Molar enthalpy of transition or fusion
Conditions: Crystal; DSC

Cn1nnnc1SCC1=C(C(=O)[O-])N2C(=O)[C@@H](NC(=O)[C@H](OC=O)c3ccccc3)[C@H]2SC1.[Na+] [cefamandole nafate]
Molar enthalpy of transition or fusion: 4.51 kcal/mol and 3.33 kcal/mol
